From US10160755B2 (Plexxikon Inc., priority 2015, dated 2018)

What was measured:
c-Kit = c-Kit (Homo sapiens, UniProt P10721); experiment: c-Kit biochemical assay (per US 2007/0032519)
Outline: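 Biochemical kinase inhibition run per US 2007/0032519; values reported as binned IC50 ranges (0.0001–1 μM, 1–10 μM, 10–200 μM).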

[1] = target: T1, BA/F3-FLT3-ITD + F691L cells (Homo sapiens, UniProt P36888, F691L, cells depend on it, form not given); experiment: BA/F3-FLT3-ITD + F691L cell proliferation assay (CellTiter-Glo); type: cell-based, murine; settings: BaF3 FLT3 ITD/F691L cells; read-out: Cell Activity (IC50 μM) BaF3_FLT3_ITD/F691L
T1 sequence (P36888 1-993 F691L): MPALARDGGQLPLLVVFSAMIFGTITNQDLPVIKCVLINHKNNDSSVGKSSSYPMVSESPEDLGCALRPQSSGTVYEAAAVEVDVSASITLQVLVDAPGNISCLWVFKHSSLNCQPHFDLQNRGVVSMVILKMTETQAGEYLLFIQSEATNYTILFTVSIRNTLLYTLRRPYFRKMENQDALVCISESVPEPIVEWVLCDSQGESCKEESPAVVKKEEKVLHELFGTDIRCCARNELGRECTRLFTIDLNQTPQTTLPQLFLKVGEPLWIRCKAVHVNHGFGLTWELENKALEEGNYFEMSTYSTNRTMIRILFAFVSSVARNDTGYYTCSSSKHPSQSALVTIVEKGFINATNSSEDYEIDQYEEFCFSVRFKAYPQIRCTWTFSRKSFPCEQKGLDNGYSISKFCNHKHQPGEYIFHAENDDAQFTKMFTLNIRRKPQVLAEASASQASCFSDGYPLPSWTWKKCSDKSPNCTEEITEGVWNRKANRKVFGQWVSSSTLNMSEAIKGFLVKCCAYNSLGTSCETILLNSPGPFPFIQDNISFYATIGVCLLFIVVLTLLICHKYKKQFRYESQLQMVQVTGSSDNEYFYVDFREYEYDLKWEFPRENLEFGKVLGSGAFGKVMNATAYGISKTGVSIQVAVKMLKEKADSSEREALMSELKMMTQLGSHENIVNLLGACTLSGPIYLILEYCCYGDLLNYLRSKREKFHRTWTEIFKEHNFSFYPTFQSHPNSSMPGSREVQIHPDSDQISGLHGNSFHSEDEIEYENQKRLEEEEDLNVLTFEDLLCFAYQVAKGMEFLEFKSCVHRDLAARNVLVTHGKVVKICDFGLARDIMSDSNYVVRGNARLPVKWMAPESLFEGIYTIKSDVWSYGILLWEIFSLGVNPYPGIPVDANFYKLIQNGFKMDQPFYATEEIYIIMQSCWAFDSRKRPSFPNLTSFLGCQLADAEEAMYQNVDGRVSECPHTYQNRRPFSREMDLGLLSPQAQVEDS
Outline: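 Murine BA/F3 cells transfected with full-length FLT3 carrying ITD plus D835Y or F691L, grown without IL-3 so growth depends on FLT3. Seeded at 1×10^4 cells/well and dosed with 8 points, 10 to 0.0046 μM, 0.2% DMSO, for three days at 37 °C. IC50 from CellTiter-Glo luminescence (ATP content).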

Chain of c-Kit (P10721 26-976): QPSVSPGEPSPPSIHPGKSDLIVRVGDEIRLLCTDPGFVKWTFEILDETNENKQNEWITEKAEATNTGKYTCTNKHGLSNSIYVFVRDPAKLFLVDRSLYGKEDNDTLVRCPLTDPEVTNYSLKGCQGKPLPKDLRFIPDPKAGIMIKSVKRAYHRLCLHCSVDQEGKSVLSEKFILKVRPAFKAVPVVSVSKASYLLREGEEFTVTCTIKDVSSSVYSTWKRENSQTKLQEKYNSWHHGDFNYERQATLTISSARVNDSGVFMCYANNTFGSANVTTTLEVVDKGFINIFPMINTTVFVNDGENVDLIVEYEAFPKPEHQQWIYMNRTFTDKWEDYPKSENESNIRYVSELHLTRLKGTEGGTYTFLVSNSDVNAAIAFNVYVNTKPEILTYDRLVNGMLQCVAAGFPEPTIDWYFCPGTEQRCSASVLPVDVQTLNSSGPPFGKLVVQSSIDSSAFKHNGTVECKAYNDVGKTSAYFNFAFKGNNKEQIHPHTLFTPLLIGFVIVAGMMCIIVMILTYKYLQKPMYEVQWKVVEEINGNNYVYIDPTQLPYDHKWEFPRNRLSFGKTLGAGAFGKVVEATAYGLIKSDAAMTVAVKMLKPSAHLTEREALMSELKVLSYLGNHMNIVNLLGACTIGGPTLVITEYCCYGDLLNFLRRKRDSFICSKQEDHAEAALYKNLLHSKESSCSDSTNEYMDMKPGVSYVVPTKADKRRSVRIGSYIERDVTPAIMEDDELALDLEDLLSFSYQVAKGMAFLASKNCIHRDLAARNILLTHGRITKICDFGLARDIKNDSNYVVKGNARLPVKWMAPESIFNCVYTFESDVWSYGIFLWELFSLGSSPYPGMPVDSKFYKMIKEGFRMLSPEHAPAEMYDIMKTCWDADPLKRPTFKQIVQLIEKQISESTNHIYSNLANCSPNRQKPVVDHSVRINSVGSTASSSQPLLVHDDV

| IC50 (c-Kit) [µM] | GI50 [1] [µM] | Compound |
| --- | --- | --- |
| 10 to 200 | 0.0001 to 1 | COc1cnc2[nH]cc(-c3ccc4ncn(-c5cccc(C#N)c5)c4c3)c2c1 [P-135, 3-[6-(5-methoxy-1H-pyrrolo[2,3-b]pyridin-3-yl)benzimidazol-1-yl]benzonitrile] |
| 10 to 200 | 0.0001 to 1 | COc1cnc2[nH]cc(-c3ccc4ncn(-c5ccc(F)c(C)c5)c4c3)c2c1 [P-129, 1-(4-fluoro-3-methyl-phenyl)-6-(5-methoxy-1H-pyrrolo[2,3-b]pyridin-3-yl)benzimidazole] |
| 1 to 10 | 0.0001 to 1 | COc1cc(-c2cnc3[nH]cc(-c4ccc5ncn(C(C)(C)C)c5c4)c3n2)ccn1 [P-099, 7-(3-tert-butylbenzimidazol-5-yl)-2-(2-methoxy-4-pyridyl)-5H-pyrrolo[2,3-b]pyrazine] |

The next lines start with the compound.

| Compound | IC50 (c-Kit) [µM] | GI50 [1] [µM] |
| --- | --- | --- |
| COc1cnc2[nH]cc(-c3ccc4ncn(-c5cccc(F)c5)c4c3)c2c1 [P-128, 1-(3-fluorophenyl)-6-(5-methoxy-1H-pyrrolo[2,3-b]pyridin-3-yl)benzimidazole] | 10 to 200 | 0.0001 to 1 |
| CC(C)(C)n1cnc2ccc(-c3c[nH]c4ncc(-c5cccc(NS(C)(=O)=O)c5)nc34)cc21 [P-097, N-[3-[7-(3-tert-butylbenzimidazol-5-yl)-5H-pyrrolo[2,3-b]pyrazin-2-yl]phenyl]methanesulfonamide] | 0.0001 to 1 | 0.0001 to 1 |
